Assay results from ChEMBL document CHEMBL1201862, “PubChem BioAssay data set” (2004).
Calls of active or inactive are those of the source.

Key:
[1] = NIH-3T3 fibroblast cytotoxicity, dose response, cytotoxicity control, cell-based, fluorescence, Alamar Blue, secondary assay (AID 2327); format: functional;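 further: NIH-3T3 mouse fibroblasts cultured with fluconazole at 8 µg/mL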
Streptokinase A = molecular target: T1, Streptokinase A (Streptococcus pyogenes serotype M1, UniProt P10520); experiment: viability-normalized secreted streptokinase activity reduction – plasminogen activation absorbance, OD405, dose response (AID 1914); format: functional, Streptococcus pyogenes M1 GAS;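 further: secreted streptokinase activity via plasminogen activation per viability signal from cell pellet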
T1 sequence (P10520 whole entry): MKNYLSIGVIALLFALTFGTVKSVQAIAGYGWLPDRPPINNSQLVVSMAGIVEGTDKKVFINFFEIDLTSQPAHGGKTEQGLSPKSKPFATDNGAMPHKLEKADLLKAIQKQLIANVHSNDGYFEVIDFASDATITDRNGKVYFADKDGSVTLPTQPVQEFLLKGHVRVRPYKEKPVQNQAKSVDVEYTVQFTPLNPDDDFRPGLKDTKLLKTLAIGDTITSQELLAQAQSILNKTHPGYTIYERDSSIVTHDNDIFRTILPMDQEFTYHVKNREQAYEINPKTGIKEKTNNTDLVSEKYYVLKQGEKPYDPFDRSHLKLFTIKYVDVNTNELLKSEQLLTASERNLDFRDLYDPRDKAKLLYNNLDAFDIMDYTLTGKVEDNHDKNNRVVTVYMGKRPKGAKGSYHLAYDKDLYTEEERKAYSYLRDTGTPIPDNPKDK

[2] = molecular target: T2, Serine/threonine-protein phosphatase (Candida dubliniensis (strain CD36 / CBS 7987 / NCPF 3949 / NRRLY-17841) (Yeast), UniProt B9W6M3); experiment: blockers of CaCl2-induced CDRE-lacZ signaling – S. cerevisiae, luminescence, secondary, dose response (AID 2388); format: functional, cell-based;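 further: yeast reporter cells carrying a calcineurin-responsive lacZ construct stimulated with calcium chloride; luminescent beta-galactosidase reporter signal in whole cells rather than isolated phosphatase activity; potency for inhibition where a drop in reporter signal means calcineurin blockade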
T2 sequence (B9W6M3 whole entry): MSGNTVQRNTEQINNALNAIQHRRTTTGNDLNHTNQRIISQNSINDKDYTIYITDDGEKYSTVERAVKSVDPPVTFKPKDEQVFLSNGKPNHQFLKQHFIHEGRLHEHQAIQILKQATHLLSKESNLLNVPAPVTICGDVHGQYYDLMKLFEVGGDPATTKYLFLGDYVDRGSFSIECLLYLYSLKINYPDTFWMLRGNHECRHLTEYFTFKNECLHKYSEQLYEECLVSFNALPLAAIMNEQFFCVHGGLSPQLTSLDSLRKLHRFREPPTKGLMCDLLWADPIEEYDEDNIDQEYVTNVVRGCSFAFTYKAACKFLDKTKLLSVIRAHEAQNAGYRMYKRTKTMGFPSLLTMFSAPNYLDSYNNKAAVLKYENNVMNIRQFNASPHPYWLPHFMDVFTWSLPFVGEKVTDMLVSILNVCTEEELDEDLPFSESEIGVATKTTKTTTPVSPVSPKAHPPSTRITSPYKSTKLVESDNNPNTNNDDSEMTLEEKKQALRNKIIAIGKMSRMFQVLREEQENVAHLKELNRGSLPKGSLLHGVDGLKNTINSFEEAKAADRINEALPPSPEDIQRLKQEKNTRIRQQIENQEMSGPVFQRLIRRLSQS

[3] = molecular target: ATP-dependent molecular chaperone HSP82 (Candida albicans (strain WO-1) (Yeast), UniProt C4YTQ8); experiment: steroid-induced GRE reporter decrease in yeast – S. cerevisiae, luminescence, Hsp90 inhibitor project, dose response (AID 2400); format: functional, cell-based;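 further: beta-galactosidase luminescence from glucocorticoid response element reporter as proxy for Hsp90 function; inhibitor potency where signal loss means Hsp90 inhibition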
Streptococcus = experiment: GAS UMAA2166 growth inhibition – luminescence, BacTiterGlo, counter-screen for streptokinase expression inhibitor project, dose response (AID 1915); format: functional, organism-based;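 further: potency for reduction of bacterial viability or growth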
Vero = experiment: viability of Vero cells under compound – cytotoxicity control for flavivirus capping enzyme inhibitors (AID 588742); format: functional; details: Chlorocebus sabaeus
[4] = molecular target: Heat shock protein HSP 90-alpha (Homo sapiens, UniProt P07900); format: functional, organism-based
[5] = fluconazole-exposed Candida albicans growth modulators – fluorescence, retest, confirmation (AID 2467); format: functional, cell-based
[6] = system: Streptococcus sp. 'group A'; experiment: Streptococcus pyogenes SK(-)GAS viability under kanamycin – luminescence, BacTiterGlo, confirmation, counter-screen for streptokinase expression inhibitor project, dose response (AID 1900); format: functional, organism-based
[7] = molecular target: T3, DNA repair protein RAD52 homolog (Homo sapiens, UniProt P43351); format: functional, biochemical
T3 sequence (P43351 whole entry): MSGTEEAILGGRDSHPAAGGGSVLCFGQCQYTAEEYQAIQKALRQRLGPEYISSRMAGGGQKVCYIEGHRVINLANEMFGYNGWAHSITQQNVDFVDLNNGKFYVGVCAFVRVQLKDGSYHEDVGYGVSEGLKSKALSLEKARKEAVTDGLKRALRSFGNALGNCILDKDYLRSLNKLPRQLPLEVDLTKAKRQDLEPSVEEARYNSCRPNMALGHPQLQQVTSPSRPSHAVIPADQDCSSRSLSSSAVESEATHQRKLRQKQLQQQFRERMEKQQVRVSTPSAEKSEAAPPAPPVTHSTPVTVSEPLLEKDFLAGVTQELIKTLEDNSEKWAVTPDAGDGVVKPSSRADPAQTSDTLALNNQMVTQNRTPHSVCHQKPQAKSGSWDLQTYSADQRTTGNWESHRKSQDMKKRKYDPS

[8] = molecular target: T4, Nucleotide-binding oligomerization domain-containing protein 1 (Homo sapiens, UniProt Q9Y239); experiment: blockers of NOD1 pathway activity – revised, SAR follow-up (AID 2333); format: functional
T4 sequence (Q9Y239 whole entry): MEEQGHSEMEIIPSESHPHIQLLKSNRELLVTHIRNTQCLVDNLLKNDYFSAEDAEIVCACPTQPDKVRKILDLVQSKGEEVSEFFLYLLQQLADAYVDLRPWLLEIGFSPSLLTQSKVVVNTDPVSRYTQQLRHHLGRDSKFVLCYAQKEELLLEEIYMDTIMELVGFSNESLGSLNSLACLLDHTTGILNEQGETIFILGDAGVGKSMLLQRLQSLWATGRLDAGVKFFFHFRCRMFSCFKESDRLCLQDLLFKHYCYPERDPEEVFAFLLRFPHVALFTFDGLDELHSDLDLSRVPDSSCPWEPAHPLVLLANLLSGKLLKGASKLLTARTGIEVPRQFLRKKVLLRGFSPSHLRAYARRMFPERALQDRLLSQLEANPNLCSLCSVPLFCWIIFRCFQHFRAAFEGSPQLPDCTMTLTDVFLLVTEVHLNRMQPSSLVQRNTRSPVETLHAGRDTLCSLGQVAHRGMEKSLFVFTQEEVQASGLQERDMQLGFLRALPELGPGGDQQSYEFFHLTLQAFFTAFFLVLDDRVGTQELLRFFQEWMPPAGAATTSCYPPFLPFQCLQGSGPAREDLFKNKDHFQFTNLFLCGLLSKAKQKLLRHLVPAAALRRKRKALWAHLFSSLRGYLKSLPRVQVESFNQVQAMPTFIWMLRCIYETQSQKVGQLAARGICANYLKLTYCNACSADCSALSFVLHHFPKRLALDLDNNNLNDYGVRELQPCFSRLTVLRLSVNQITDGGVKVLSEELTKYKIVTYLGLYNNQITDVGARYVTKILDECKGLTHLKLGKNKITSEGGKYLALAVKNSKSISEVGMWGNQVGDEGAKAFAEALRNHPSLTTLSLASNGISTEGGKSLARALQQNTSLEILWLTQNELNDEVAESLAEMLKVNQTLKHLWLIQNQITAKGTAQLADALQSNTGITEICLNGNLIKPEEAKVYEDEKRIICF

HEK293 = experiment: cells; details: Homo sapiens;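 further: cells exposed to compound for 14 hours overnight before viability readout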
Tumor necrosis factor = Tumor necrosis factor (Homo sapiens, UniProt P01375); experiment: analog potency on TNFa NF-kB signaling – cell-based, revised, SAR follow-up (AID 2337); format: functional
[9] = Luminescence Cell-Based Dose Retest to Confirm Inhibitors of Cancer Stem Cells. [Related pubchem assays (depositor defined):AID2717, AID2721]; format: functional; details: Homo sapiens
[10] = molecular target: T5, High affinity choline transporter 1 (Homo sapiens, UniProt Q9GZV3); experiment: human choline transporter blockers, potency – cell-based, 5-point CRC, membrane potential dye, dose response (AID 504840); format: functional
T5 sequence (Q9GZV3 whole entry): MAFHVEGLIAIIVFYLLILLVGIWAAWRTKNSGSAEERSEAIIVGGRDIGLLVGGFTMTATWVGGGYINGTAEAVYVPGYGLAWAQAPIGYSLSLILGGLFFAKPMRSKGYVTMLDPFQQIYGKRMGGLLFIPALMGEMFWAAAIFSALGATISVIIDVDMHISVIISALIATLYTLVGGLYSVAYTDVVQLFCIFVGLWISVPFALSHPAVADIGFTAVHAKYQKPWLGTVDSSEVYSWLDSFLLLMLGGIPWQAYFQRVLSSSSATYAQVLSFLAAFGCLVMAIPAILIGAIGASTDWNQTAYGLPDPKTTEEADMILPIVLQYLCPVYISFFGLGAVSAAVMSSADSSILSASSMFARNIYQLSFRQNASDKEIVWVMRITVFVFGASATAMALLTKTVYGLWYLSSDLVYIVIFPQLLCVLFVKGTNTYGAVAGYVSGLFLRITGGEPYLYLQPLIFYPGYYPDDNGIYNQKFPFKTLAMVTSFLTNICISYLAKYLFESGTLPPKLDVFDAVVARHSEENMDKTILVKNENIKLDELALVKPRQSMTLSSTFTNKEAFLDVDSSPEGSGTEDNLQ

ATP-dependent molecular chaperone HSP82, sequence (C4YTQ8 whole entry): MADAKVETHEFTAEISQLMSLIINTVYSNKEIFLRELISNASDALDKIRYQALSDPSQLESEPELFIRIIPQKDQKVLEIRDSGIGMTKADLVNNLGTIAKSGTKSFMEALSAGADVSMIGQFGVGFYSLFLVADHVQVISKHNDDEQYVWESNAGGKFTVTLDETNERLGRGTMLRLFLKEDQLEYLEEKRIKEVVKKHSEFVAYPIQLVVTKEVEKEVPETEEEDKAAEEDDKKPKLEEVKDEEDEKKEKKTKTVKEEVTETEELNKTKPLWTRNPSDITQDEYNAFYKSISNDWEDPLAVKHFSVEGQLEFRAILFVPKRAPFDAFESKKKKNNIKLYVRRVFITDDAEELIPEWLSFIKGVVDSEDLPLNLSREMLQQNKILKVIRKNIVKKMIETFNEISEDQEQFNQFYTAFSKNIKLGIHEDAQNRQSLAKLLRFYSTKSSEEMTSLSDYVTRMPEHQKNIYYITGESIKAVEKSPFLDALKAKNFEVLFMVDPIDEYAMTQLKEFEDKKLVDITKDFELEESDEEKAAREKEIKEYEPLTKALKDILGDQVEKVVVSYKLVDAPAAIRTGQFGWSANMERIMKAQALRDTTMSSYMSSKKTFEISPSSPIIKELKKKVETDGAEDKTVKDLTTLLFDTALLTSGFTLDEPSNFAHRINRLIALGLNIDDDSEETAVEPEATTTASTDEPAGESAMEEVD
Tumor necrosis factor, sequence (P01375 whole entry): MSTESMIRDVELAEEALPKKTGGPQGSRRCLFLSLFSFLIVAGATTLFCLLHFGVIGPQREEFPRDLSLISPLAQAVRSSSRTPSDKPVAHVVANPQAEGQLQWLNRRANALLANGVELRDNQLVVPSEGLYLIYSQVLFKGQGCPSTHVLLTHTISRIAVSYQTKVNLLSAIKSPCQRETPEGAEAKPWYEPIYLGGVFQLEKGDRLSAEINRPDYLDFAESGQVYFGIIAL

Compound | EC50 [1] | EC50 (Streptokinase A) | EC50 [2] | EC50 [3] | EC50 (Streptococcus) | CC50 (Vero) | AC50 [4] | EC50 [5] | EC50 [6] | AC50 [7] | IC50 [8] | IC50 (HEK293) | IC50 (Tumor necrosis factor) | AC50 [9] | IC50 [10]
[O-][n+]1cccc2c(Br)cc(Br)c(O)c21 | > 150 µM (inconclusive) | > 150 µM (not active) | > 180 µM (inactive) | > 160 µM (inactive) | 18.7 µM (active) | > 40 µM (active) | 3.15 µM (active) | 0.651 µM (active) | 0.865 µM (active) |  |  |  |  |  | 
CC(C)N1CCc2c(sc(NC(=O)c3nc4ccccc4s3)c2C(N)=O)C1 | > 150 µM (inactive) |  | > 180 µM (inactive) | 51.8 µM (active) |  |  |  | 0.491 µM (active) |  | 9.55 µM (active) |  |  |  |  | 
COc1ccc(NC(=O)c2ccc(CN3CCc4ccccc43)cc2)cc1 |  |  |  |  |  |  |  |  |  |  | > 20 µM (inactive) | > 20 µM (inactive) | > 20 µM (inactive) |  | 
O=C(NNC1=C(C(=O)C(F)(F)F)CCC1)c1cccc(Cl)c1 | > 150 µM (inactive) | > 150 µM (not active) | > 180 µM (inactive) | 24.6 µM (active) | 2.77 µM (active) |  |  | 0.741 µM (active) | 1.23 µM (active) |  |  |  |  | 1.95 µM (active) | 11 µM (active)
